Experiments:
TRKC = target: T1, TRKC (Homo sapiens, UniProt Q16288); test: Z'-LYTE kinase activity detection, TRKC; format: biochemical
T1 construct: purchased American Life Technologies PV3617

BaF3-ETV6-NTRK3-G623E = target: T2, BaF3-ETV6-NTRK3-G623E (Homo sapiens, UniProt Q16288, G623E); test: Drug-resistant cell proliferation inhibition (CCK-8); format: cell-based, mouse; conditions: 72 hours, read-out: drug-resistant cell viability IC50
T2 construct: constructed pCDNA3.1(+) plasmid vector carrying genes such as; fused on or other part: P41212 (Transcription factor ETV6)
T2 sequence (Q16288 whole entry G623E, the tested form may be a part): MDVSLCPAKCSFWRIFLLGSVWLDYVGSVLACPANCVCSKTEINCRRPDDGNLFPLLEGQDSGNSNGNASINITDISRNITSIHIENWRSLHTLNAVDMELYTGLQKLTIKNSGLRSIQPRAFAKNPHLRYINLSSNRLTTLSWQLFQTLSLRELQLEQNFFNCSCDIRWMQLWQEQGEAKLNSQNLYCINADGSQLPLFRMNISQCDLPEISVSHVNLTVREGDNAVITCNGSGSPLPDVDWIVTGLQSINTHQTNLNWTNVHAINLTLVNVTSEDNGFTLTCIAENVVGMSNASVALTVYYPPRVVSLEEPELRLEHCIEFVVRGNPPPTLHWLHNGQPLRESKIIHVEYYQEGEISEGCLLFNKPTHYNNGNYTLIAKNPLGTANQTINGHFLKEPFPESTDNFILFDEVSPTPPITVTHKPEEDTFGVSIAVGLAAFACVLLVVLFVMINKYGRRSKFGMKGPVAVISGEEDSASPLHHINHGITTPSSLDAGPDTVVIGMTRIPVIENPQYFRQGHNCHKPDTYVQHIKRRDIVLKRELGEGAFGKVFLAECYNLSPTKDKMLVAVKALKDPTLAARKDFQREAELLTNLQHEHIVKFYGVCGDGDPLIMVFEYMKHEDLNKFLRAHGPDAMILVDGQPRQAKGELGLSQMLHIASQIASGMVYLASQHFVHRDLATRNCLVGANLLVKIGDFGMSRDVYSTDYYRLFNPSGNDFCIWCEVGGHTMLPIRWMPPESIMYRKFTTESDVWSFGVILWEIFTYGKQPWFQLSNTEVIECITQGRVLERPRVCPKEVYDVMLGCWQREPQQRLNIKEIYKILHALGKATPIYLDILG
From the text: (§1) BaF3 cells (mouse pre-B cells) used in this experiment were purchased from Japan Cell Bank, all of the monoclonal stable strains, BaF3-CD74-NTRK1-G667C, BaF3-CD74-NTRK1-F589L, BaF3-CD74-NTRK1-G595R, BaF3-CD74-NTRK1-G667A, BaF3-CD74-NTRK1-V573M, BaF3-ETV6-NTRK2-G639R, BaF3-ETV6-NTRK2-G709C, BaF3-ETV6-NTRK2-V617M, BaF3-ETV6-NTRK2-F633L, BaF3-ETV6-NTRK3-G696C, BaF3-ETV6-NTRK3-G696A, BaF3-ETV6-NTRK3-G623R, BaF3-ETV6-NTRK3-G623E, BaF3-ETV6-NTRK3-F617L and BaF3-ETV6-NTRK3-V601M were constructed by our laboratory, and were identified by experiments such as positive control, protein expression and gene sequencing.
(§2) The brief steps for stable strains construction were as follows: constructed pCDNA3.1(+) plasmid vector carrying genes such as BaF3-CD74-NTRK1-G667C, BaF3-CD74-NTRK1-F589L, BaF3-CD74-NTRK1-G595R, BaF3-CD74-NTRK1-G667A, BaF3-CD74-NTRK1-V573M, BaF3-ETV6-NTRK2-G639R, BaF3-ETV6-NTRK2-G709C, BaF3-ETV6-NTRK2-V617M, BaF3-ETV6-NTRK2-F633L, BaF3-ETV6-NTRK3-G696C, BaF3-ETV6-NTRK3-G696A, BaF3-ETV6-NTRK3-G623R, BaF3-ETV6-NTRK3-G623E, BaF3-ETV6-NTRK3-F617L and BaF3-ETV6-NTRK3-V601M; the plasmid was electroporated into Ba/F3 cells using Amaxa® Cell Line Nucleofector® Kit V; 48 hours after of electroporation, geneticin (G418) with a final concentration of 1000 μg/mL was added to screen for two weeks, and the interleukin 3 (IL3) was removed to continue screening to obtain polyclonal stable strains; and then single clones were selected by limiting dilution method; the stable strains were then identified by the positive drugs, Western Blot (WB), and gene sequencing; the correct monoclonal through identification can be used to study the cell proliferation inhibitory activity of the inhibitors.
(§3) Cell proliferation inhibitory activity study: The cells in logarithmic growth phase were seeded into 96-well plates at 8000-12000 cells/well, and the inhibitors at different concentrations of (0-10 μM) were added the next day, and the culture was continued for 72 hours; then 10 μL of Cell Counting Kit-8 Cell Counting Reagent (CCK-8 Reagent) was added to each well, and continued to incubate for 1-3 hours; then its absorbance at 450 nm and 650 nm were measured with a super microplate reader. The median inhibitory concentration (IC50) was calculated using medical graphing software (GraphPad Prism 8.0.0).

BaF3-ETV6-NTRK3-F617L = target: T3, BaF3-ETV6-NTRK3-F617L (Homo sapiens, UniProt Q16288, F617L); test: as above; format: cell-based, mouse; conditions: 72 hours, read-out: drug-resistant cell viability IC50
T3 construct: constructed pCDNA3.1(+) plasmid vector carrying genes such as; fused on or other part: P41212 (Transcription factor ETV6)
T3 sequence (Q16288 whole entry F617L, the tested form may be a part): as the sequence (Q16288 whole entry G623E, the tested form may be a part) above, with F617L, E623G counted along it
From the text: as §1, §2, §3

BaF3-CD74-NTRK1-V573M = target: T4, BaF3-CD74-NTRK1-V573M (Homo sapiens, UniProt P04629, V573M); test: as above; format: cell-based, mouse; conditions: 72 hours, read-out: drug-resistant cell viability IC50
T4 construct: constructed pCDNA3.1(+) plasmid vector carrying genes such as BaF3-CD74-NTRK1-G667C; fused on or other part: P04233 (HLA class II histocompatibility antigen gamma chain)
T4 sequence (P04629 510-796 V573M limits assumed): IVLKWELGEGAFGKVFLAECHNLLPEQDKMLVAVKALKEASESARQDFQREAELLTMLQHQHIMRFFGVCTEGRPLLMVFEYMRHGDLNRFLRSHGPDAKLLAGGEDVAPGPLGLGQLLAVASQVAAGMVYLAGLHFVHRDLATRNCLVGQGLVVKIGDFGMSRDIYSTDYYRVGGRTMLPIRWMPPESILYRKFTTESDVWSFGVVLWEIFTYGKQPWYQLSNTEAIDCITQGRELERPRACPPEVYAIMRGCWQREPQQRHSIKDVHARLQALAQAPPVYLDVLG
From the text: as §1, §2, §3

BaF3-ETV6-NTRK2-V617M = target: T5, BaF3-ETV6-NTRK2-V617M (Homo sapiens, UniProt Q16620, V601M); test: as above; format: cell-based, mouse; conditions: 72 hours, read-out: drug-resistant cell viability IC50
T5 construct: constructed pCDNA3.1(+) plasmid vector carrying genes such as; fused on or other part: P41212 (Transcription factor ETV6)
T5 sequence (Q16620 538-822 V601M limits assumed): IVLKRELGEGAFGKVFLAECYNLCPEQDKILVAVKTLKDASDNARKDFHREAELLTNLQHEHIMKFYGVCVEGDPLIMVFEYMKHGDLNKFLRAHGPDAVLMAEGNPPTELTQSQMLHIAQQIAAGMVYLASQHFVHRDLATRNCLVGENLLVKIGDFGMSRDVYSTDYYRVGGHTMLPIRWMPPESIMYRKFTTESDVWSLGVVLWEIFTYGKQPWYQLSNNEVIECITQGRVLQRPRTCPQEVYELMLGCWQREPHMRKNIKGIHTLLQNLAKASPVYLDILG
From the text: as §1, §2, §3

BaF3-ETV6-NTRK3-V601M = target: T6, BaF3-ETV6-NTRK3-V601M (Homo sapiens, UniProt Q16288, V601M); test: as above; format: cell-based, mouse; conditions: 72 hours, read-out: drug-resistant cell viability IC50
T6 construct: constructed pCDNA3.1(+) plasmid vector carrying genes such as; fused on or other part: P41212 (Transcription factor ETV6)
T6 sequence (Q16288 whole entry V601M, the tested form may be a part): as the sequence (Q16288 whole entry G623E, the tested form may be a part) above, with V601M, E623G counted along it
From the text: as §1, §2, §3

BaF3-ETV6-NTRK2-G709C = target: T7, BaF3-ETV6-NTRK2-G709C (Homo sapiens, UniProt Q16620, G693C); test: as above; format: cell-based, mouse; conditions: 72 hours, read-out: drug-resistant cell viability IC50
T7 construct: constructed pCDNA3.1(+) plasmid vector carrying genes such as; fused on or other part: P41212 (Transcription factor ETV6)
T7 sequence (Q16620 538-822 G693C limits assumed): as the sequence (Q16620 538-822 V601M limits assumed) above, with M64V, G156C counted along it
From the text: as §1, §2, §3

BaF3-ETV6-NTRK2-G639R = target: T8, BaF3-ETV6-NTRK2-G639R (Homo sapiens, UniProt Q16620, G623R); test: as above; format: cell-based, mouse; conditions: 72 hours, read-out: drug-resistant cell viability IC50
T8 construct: constructed pCDNA3.1(+) plasmid vector carrying genes such as; fused on or other part: P41212 (Transcription factor ETV6)
T8 sequence (Q16620 538-822 G623R limits assumed): as the sequence (Q16620 538-822 V601M limits assumed) above, with M64V, G86R counted along it
From the text: as §1, §2, §3

BaF3-ETV6-NTRK3-G696A = target: T9, BaF3-ETV6-NTRK3-G696A (Homo sapiens, UniProt Q16288, G696A); test: as above; format: cell-based, mouse; conditions: 72 hours, read-out: drug-resistant cell viability IC50
T9 construct: constructed pCDNA3.1(+) plasmid vector carrying genes such as; fused on or other part: P41212 (Transcription factor ETV6)
T9 sequence (Q16288 whole entry G696A, the tested form may be a part): as the sequence (Q16288 whole entry G623E, the tested form may be a part) above, with E623G, G696A counted along it
From the text: as §1, §2, §3

BaF3-CD74-NTRK1-F589L = target: T10, BaF3-CD74-NTRK1-F589L (Homo sapiens, UniProt P04629, F589L); test: as above; format: cell-based, mouse; conditions: 72 hours, read-out: drug-resistant cell viability IC50
T10 construct: fused on or other part: P04233 (HLA class II histocompatibility antigen gamma chain)
T10 sequence (P04629 510-796 F589L limits assumed): as the sequence (P04629 510-796 V573M limits assumed) above, with M64V, F80L counted along it
From the text: as §1, §2, §3

BaF3-CD74-NTRK1-G595R = target: T11, BaF3-CD74-NTRK1-G595R (Homo sapiens, UniProt P04629, G595R); test: as above; format: cell-based, mouse; conditions: 72 hours, read-out: drug-resistant cell viability IC50
T11 construct: constructed pCDNA3.1(+) plasmid vector carrying genes such as; fused on or other part: P04233 (HLA class II histocompatibility antigen gamma chain)
T11 sequence (P04629 510-796 G595R limits assumed): as the sequence (P04629 510-796 V573M limits assumed) above, with M64V, G86R counted along it
From the text: as §1, §2, §3

BaF3-ETV6-NTRK3-G623R = target: T12, BaF3-ETV6-NTRK3-G623R (Homo sapiens, UniProt Q16288, G623R); test: as above; format: cell-based, mouse; conditions: 72 hours, read-out: drug-resistant cell viability IC50
T12 construct: constructed pCDNA3.1(+) plasmid vector carrying genes such as; fused on or other part: P41212 (Transcription factor ETV6)
T12 sequence (Q16288 whole entry G623R, the tested form may be a part): as the sequence (Q16288 whole entry G623E, the tested form may be a part) above, with E623R counted along it
From the text: as §1, §2, §3

BaF3-ETV6-NTRK3-G696C = target: T13, BaF3-ETV6-NTRK3-G696C (Homo sapiens, UniProt Q16288, G696C); test: as above; format: cell-based, mouse; conditions: 72 hours, read-out: drug-resistant cell viability IC50
T13 construct: constructed pCDNA3.1(+) plasmid vector carrying genes such as; fused on or other part: P41212 (Transcription factor ETV6)
T13 sequence (Q16288 whole entry G696C, the tested form may be a part): as the sequence (Q16288 whole entry G623E, the tested form may be a part) above, with E623G, G696C counted along it
From the text: as §1, §2, §3

BaF3-CD74-NTRK1-G667C = target: T14, BaF3-CD74-NTRK1-G667C (Homo sapiens, UniProt P04629, G667C); test: as above; format: cell-based, mouse; conditions: 72 hours, read-out: drug-resistant cell viability IC50
T14 construct: fused on or other part: P04233 (HLA class II histocompatibility antigen gamma chain)
T14 sequence (P04629 510-796 G667C limits assumed): as the sequence (P04629 510-796 V573M limits assumed) above, with M64V, G158C counted along it
From the text: as §1, §2, §3

BaF3-ETV6-NTRK2-F633L = target: T15, BaF3-ETV6-NTRK2-F633L (Homo sapiens, UniProt Q16620, F617L); test: as above; format: cell-based, mouse; conditions: 72 hours, read-out: drug-resistant cell viability IC50
T15 construct: constructed pCDNA3.1(+) plasmid vector carrying genes such as; fused on or other part: P41212 (Transcription factor ETV6)
T15 sequence (Q16620 538-822 F617L limits assumed): as the sequence (Q16620 538-822 V601M limits assumed) above, with M64V, F80L counted along it
From the text: as §1, §2, §3

BaF3-CD74-NTRK1-G667A = target: T16, BaF3-CD74-NTRK1-G667A (Homo sapiens, UniProt P04629, G667A); test: as above; format: cell-based, mouse; conditions: 72 hours, read-out: drug-resistant cell viability IC50
T16 construct: constructed pCDNA3.1(+) plasmid vector carrying genes such as; fused on or other part: P04233 (HLA class II histocompatibility antigen gamma chain)
T16 sequence (P04629 510-796 G667A limits assumed): as the sequence (P04629 510-796 V573M limits assumed) above, with M64V, G158A counted along it
From the text: as §1, §2, §3

T1 sequence (Q16288 32-839): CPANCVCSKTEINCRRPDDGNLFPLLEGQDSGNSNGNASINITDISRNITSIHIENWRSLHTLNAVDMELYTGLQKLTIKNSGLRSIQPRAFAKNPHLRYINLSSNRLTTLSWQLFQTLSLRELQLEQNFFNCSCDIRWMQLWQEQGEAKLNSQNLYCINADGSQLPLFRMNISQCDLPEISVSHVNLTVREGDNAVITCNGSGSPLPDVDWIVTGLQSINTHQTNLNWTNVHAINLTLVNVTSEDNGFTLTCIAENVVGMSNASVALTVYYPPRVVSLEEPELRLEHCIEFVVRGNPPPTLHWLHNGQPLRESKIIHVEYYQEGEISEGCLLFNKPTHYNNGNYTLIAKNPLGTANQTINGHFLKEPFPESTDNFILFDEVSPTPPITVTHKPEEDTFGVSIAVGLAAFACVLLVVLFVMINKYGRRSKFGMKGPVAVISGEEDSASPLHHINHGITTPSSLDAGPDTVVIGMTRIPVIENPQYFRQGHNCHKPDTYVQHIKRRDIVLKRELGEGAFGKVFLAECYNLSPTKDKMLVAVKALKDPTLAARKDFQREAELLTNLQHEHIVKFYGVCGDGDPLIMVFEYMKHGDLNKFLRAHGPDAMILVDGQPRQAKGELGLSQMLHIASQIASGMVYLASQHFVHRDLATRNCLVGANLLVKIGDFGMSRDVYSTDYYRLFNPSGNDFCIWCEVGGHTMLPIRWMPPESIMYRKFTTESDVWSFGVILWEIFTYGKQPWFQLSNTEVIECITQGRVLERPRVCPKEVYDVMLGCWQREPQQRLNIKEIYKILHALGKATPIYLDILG

Row | Structure (SMILES) | IC50 (TRKC) | IC50 (BaF3-ETV6-NTRK3-G623E) | IC50 (BaF3-ETV6-NTRK3-F617L) | IC50 (BaF3-CD74-NTRK1-V573M) | IC50 (BaF3-ETV6-NTRK2-V617M) | IC50 (BaF3-ETV6-NTRK3-V601M) | IC50 (BaF3-ETV6-NTRK2-G709C) | IC50 (BaF3-ETV6-NTRK2-G639R) | IC50 (BaF3-ETV6-NTRK3-G696A) | IC50 (BaF3-CD74-NTRK1-F589L) | IC50 (BaF3-CD74-NTRK1-G595R) | IC50 (BaF3-ETV6-NTRK3-G623R) | IC50 (BaF3-ETV6-NTRK3-G696C) | IC50 (BaF3-CD74-NTRK1-G667C) | IC50 (BaF3-ETV6-NTRK2-F633L) | IC50 (BaF3-CD74-NTRK1-G667A)
1 | Cc1c(C#Cc2cnc3ccc(N4CCC(O)CC4)nn23)cccc1C(=O)Nc1cc(CN2CCN(C)CC2)cc(C(F)(F)F)c1 [XS3-81, 3-((6-(4-HYDROXYPIPERIDIN-1-YL)IMIDAZO[1,2-B]PYRIDAZIN-3-YL)ETHYNYL)-2-METHYL-N-(3-(((4-METHYLPIPERAZIN-1-YL)METHYL)-5-(TRIFLUOROMETHYL)PHENYL)BENZAMIDE] | < 10 nM | < 10 nM | 10 to 100 nM | < 10 nM | < 10 nM | < 10 nM | 10 to 100 nM | 10 to 100 nM | < 10 nM | 100 to 1000 nM | 100 to 1000 nM | 10 to 100 nM | < 10 nM | < 10 nM | 100 to 1000 nM | < 10 nM
2 | Cc1c(C#Cc2cnc3ccc(N4CCOCC4)nn23)cccc1C(=O)Nc1cc(CN2CCN(C)CC2)cc(C(F)(F)F)c1 [XS3-68, 2-METHYL-N-(3-((4-METHYLPIPERAZIN-1-YL)METHYL)-5-(TRIFLUOROMETHYL)PHENYL)-3-((6-METHYLENE) LINOIMIDAZO[1,2-B]PYRIDAZIN-3-YL)ETHYNYL)BENZAMIDE] | < 10 nM | < 10 nM | 10 to 100 nM | 10 to 100 nM | < 10 nM | < 10 nM | < 10 nM | 10 to 100 nM | < 10 nM | 100 to 1000 nM | 100 to 1000 nM | 10 to 100 nM | < 10 nM | < 10 nM | 100 to 1000 nM | < 10 nM
3 | Cc1cn(-c2cc(NC(=O)c3cccc(C#Cc4cnc5ccc(N6CCC(O)CC6)nn45)c3C)cc(C(F)(F)F)c2)cn1 [XS3-87, 3-((6-(4-HYDROXYPIPERIDIN-1-YL)IMIDAZO[1,2-B]PYRIDAZIN-3-YL)ETHYNYL)-2-METHYL-N-(3-(4-METHYL-1H-IMIDAZOL-1-YL)-5-(TRIFLUOROMETHYL)PHENYL)BENZAMIDE] | < 10 nM | < 10 nM | < 10 nM | < 10 nM | < 10 nM | < 10 nM | < 10 nM | 10 to 100 nM | < 10 nM | 10 to 100 nM | 100 to 1000 nM | 10 to 100 nM | < 10 nM | < 10 nM | 10 to 100 nM | < 10 nM
4 | Cc1c(C#Cc2cnc3ccc(N4CCC(O)CC4)nn23)cccc1C(=O)Nc1cc(Cl)cc(C(F)(F)F)c1 [XS3-55, N-(3-CHLORO-5-(TRIFLUOROMETHYL)PHENYL)-3-((6-(4-HYDROXYPIPERIDIN-1-YL)IMIDAZO[1,2-B]PYRIDAZINE-3-YL)ETHYNYL)-2-METHYLBENZAMIDE] | 10 to 100 nM | < 10 nM | 10 to 100 nM | 10 to 100 nM | – | < 10 nM | – | – | < 10 nM | 100 to 1000 nM | > 1000 nM | 100 to 1000 nM | < 10 nM | < 10 nM | – | < 10 nM

— patent publication US11834454B2, “Alkynylphenylbenzamide compounds and applications thereof” (SHENZHEN NEWDEL BIOTECH CO., LTD., priority 2021, dated 2023)
